Inconclusive results and toxic doses are left out. Rule as the data show it: active = T/C of 150% or more; inactive = T/C below 125%.
Tested on: L1210 leukemia ip in BDF1 mice, survival T/C
Test: NCI In Vivo Anticancer Drug Screen. Data for tumor model L1210 Leukemia (intraperitoneal) in B6D2F1 (BDF1) mice
Conditions: endpoint: mean survival time, higher = longer survival
In short: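 Tumor cells were implanted, animals were treated, and survival was followed. The result divides the treated measurement by the vehicle-control measurement.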

[1] = dose: 100.0 mg/kg/injection, schedule: Q01DX009 (ip), vehicle: saline
[2] = dose: 200.0 mg/kg/injection, schedule: Q01DX009 (ip), vehicle: saline
[3] = dose: 400.0 mg/kg/injection, schedule: Q01DX009 (ip), vehicle: saline
[4] = dose: 100.0 mg/kg/injection, schedule: Q01DX001 (ip), vehicle: saline
[5] = dose: 200.0 mg/kg/injection, schedule: Q01DX001 (ip), vehicle: saline
[6] = dose: 400.0 mg/kg/injection, schedule: Q01DX001 (ip), vehicle: saline
[7] = dose: 100.0 mg/kg/injection, schedule: Q01DX009 (ip), vehicle: saline with Tween-80
[8] = dose: 200.0 mg/kg/injection, schedule: Q01DX009 (ip), vehicle: saline with Tween-80
[9] = dose: 400.0 mg/kg/injection, schedule: Q01DX009 (ip), vehicle: saline with Tween-80
[10] = dose: 100.0 mg/kg/injection, schedule: Q04DX002 (ip), vehicle: Klucel (hydroxypropylcellulose) (HPC)
[11] = dose: 200.0 mg/kg/injection, schedule: Q04DX002 (ip), vehicle: Klucel (hydroxypropylcellulose) (HPC)
[12] = dose: 400.0 mg/kg/injection, schedule: Q04DX002 (ip), vehicle: Klucel (hydroxypropylcellulose) (HPC)
[13] = dose: 100.0 mg/kg/injection, schedule: Q04DX003 (ip), vehicle: saline
[14] = dose: 200.0 mg/kg/injection, schedule: Q04DX003 (ip), vehicle: saline
[15] = dose: 400.0 mg/kg/injection, schedule: Q04DX003 (ip), vehicle: saline

Measured: T/C

N#Cc1ccccc1C(N)=O
inactive: dose: 12.5 mg/kg/injection, schedule: Q04DX002 (ip), vehicle: saline 107 % of control | dose: 25.0 mg/kg/injection, schedule: Q04DX002 (ip), vehicle: saline 98 % of control | dose: 50.0 mg/kg/injection, schedule: Q04DX002 (ip), vehicle: saline 102 % of control | dose: 100.0 mg/kg/injection, schedule: Q04DX002 (ip), vehicle: saline 90 % of control

C[N+](C)(C)CCOC(=O)c1cccc(CBr)c1CBr
inactive: dose: 6.25 mg/kg/injection, schedule: Q01DX009 (ip), vehicle: saline 103 % of control | dose: 6.25 mg/kg/injection, schedule: Q04DX003 (ip), vehicle: saline 104 % of control | dose: 12.5 mg/kg/injection, schedule: Q01DX009 (ip), vehicle: saline 97 % of control | dose: 12.5 mg/kg/injection, schedule: Q04DX003 (ip), vehicle: saline 98 % of control | dose: 25.0 mg/kg/injection, schedule: Q01DX009 (ip), vehicle: saline 97 % of control | dose: 25.0 mg/kg/injection, schedule: Q04DX003 (ip), vehicle: saline 104 % of control

O=C(O)C12CCC(CC1)C2
inactive: dose: 50.0 mg/kg/injection, schedule: Q01DX009 (ip), vehicle: saline 106 % of control | [1] 110 % of control | [2] 112 % of control | [3] 96 % of control

COc1ccc(C(=O)c2cc3cccc(OC)c3o2)cc1OC
inactive: dose: 75.0 mg/kg/injection, schedule: Q01DX009 (ip), vehicle: saline 87 % of control | [4] 102 % of control | dose: 150.0 mg/kg/injection, schedule: Q01DX009 (ip), vehicle: saline 92 % of control | [5] 94 % of control | dose: 300.0 mg/kg/injection, schedule: Q01DX009 (ip), vehicle: saline 93 % of control | [6] 93 % of control

Cc1c[nH]c2nccnc12
inactive: dose: 100.0 mg/kg/injection, schedule: Q01DX009 (ip), vehicle: water 102 % of control | dose: 100.0 mg/kg/injection, schedule: Q04DX003 (ip), vehicle: water 108 % of control | dose: 200.0 mg/kg/injection, schedule: Q01DX009 (ip), vehicle: water 96 % of control | dose: 200.0 mg/kg/injection, schedule: Q04DX003 (ip), vehicle: water 98 % of control | dose: 400.0 mg/kg/injection, schedule: Q01DX009 (ip), vehicle: water 105 % of control | dose: 400.0 mg/kg/injection, schedule: Q04DX003 (ip), vehicle: water 101 % of control

COC(=O)C1(C)CCCC2(C)C1CCC13OCC(CC21)C1(C(C)C)OC31 (centres undefined)
inactive: [7] 96 % of control | [8] 93 % of control | [9] 95 % of control

CC(=O)Oc1c(N)c(C)cc(C)c1F
inactive: dose: 6.0 mg/kg/injection, schedule: Q01DX001 (ip), vehicle: Klucel (hydroxypropylcellulose) (HPC) 92 % of control | dose: 12.0 mg/kg/injection, schedule: Q01DX001 (ip), vehicle: Klucel (hydroxypropylcellulose) (HPC) 92 % of control | dose: 25.0 mg/kg/injection, schedule: Q01DX001 (ip), vehicle: Klucel (hydroxypropylcellulose) (HPC) 110 % of control

CNC(=O)NN
inactive: dose: 25.0 mg/kg/injection, schedule: Q04DX002 (ip), vehicle: saline with Tween-80 97 % of control | dose: 50.0 mg/kg/injection, schedule: Q04DX002 (ip), vehicle: saline with Tween-80 93 % of control | dose: 100.0 mg/kg/injection, schedule: Q04DX002 (ip), vehicle: saline with Tween-80 90 % of control

Cc1cccnc1NC(=S)Nc1cccc(C(F)(F)F)c1
inactive: [10] 95 % of control | [11] 95 % of control | [12] 92 % of control

CCOc1ccc(N=Nc2c(O)n(-c3ccccc3C)c(=S)n(-c3ccccc3OC)c2=O)cc1
inactive: dose: 75.0 mg/kg/injection, schedule: Q01DX003 (ip), vehicle: Klucel (hydroxypropylcellulose) (HPC) 91 % of control | dose: 150.0 mg/kg/injection, schedule: Q01DX003 (ip), vehicle: Klucel (hydroxypropylcellulose) (HPC) 94 % of control | dose: 300.0 mg/kg/injection, schedule: Q01DX003 (ip), vehicle: Klucel (hydroxypropylcellulose) (HPC) 91 % of control

S=C(Sc1nc2ccccc2s1)Sc1nc2ccccc2s1
inactive: [10] 105 % of control | [11] 94 % of control | [12] 101 % of control

O=C(N/N=C/c1cccc2ccccc12)c1ccc(O)cc1
inactive: [10] 100 % of control | [11] 100 % of control | [12] 103 % of control

CCOC(=O)CCCSCCCC(=O)OCC
inactive: [1] 111 % of control | [13] 111 % of control | [2] 101 % of control | [14] 98 % of control | [3] 110 % of control | [15] 88 % of control

O=C(c1ccccc1)c1ccc(NC(=S)Nc2ccc(C(=O)c3ccccc3)cc2)cc1
inactive: dose: 20.0 mg/kg/injection, schedule: Q01DX005 (ip), vehicle: saline with Tween-80 97 % of control | dose: 40.0 mg/kg/injection, schedule: Q01DX005 (ip), vehicle: saline with Tween-80 92 % of control | dose: 80.0 mg/kg/injection, schedule: Q01DX005 (ip), vehicle: saline with Tween-80 92 % of control | dose: 160.0 mg/kg/injection, schedule: Q01DX005 (ip), vehicle: saline with Tween-80 95 % of control | dose: 320.0 mg/kg/injection, schedule: Q01DX005 (ip), vehicle: saline with Tween-80 97 % of control

Nc1cccc(-c2csc(N)n2)c1
inactive: dose: 100.0 mg/kg/injection, schedule: Q01DX001 (ip), vehicle: carboxymethylcellulose (CMC) 100 % of control | dose: 200.0 mg/kg/injection, schedule: Q01DX001 (ip), vehicle: carboxymethylcellulose (CMC) 100 % of control

CCCNC(=O)CS(=O)(=O)c1ccc(N)cc1
inactive: dose: 100.0 mg/kg/injection, schedule: Q04DX003 (ip), vehicle: saline with Tween-80 97 % of control | dose: 200.0 mg/kg/injection, schedule: Q04DX003 (ip), vehicle: saline with Tween-80 95 % of control | dose: 400.0 mg/kg/injection, schedule: Q04DX003 (ip), vehicle: saline with Tween-80 97 % of control

C(=C\c1nc2ccccc2nc1/C=C/c1ccc2c(c1)OCO2)/c1ccc2c(c1)OCO2
inactive: dose: 12.5 mg/kg/injection, schedule: Q01DX009 (ip), vehicle: Klucel (hydroxypropylcellulose) (HPC) 95 % of control | dose: 25.0 mg/kg/injection, schedule: Q01DX009 (ip), vehicle: Klucel (hydroxypropylcellulose) (HPC) 92 % of control | dose: 50.0 mg/kg/injection, schedule: Q01DX009 (ip), vehicle: Klucel (hydroxypropylcellulose) (HPC) 100 % of control | dose: 100.0 mg/kg/injection, schedule: Q04DX003 (ip), vehicle: Klucel (hydroxypropylcellulose) (HPC) 102 % of control | dose: 200.0 mg/kg/injection, schedule: Q04DX003 (ip), vehicle: Klucel (hydroxypropylcellulose) (HPC) 96 % of control | dose: 400.0 mg/kg/injection, schedule: Q01DX009 (ip), vehicle: Klucel (hydroxypropylcellulose) (HPC) 86 % of control | dose: 400.0 mg/kg/injection, schedule: Q04DX003 (ip), vehicle: Klucel (hydroxypropylcellulose) (HPC) 95 % of control

Cc1cc(C)nc(CCSS(=O)(=O)O)c1
inactive: [4] 104 % of control | [5] 102 % of control | [6] 98 % of control

O=c1c(O)c(-c2ccc(O)cc2O)oc2cc(O)cc(O)c12
inactive: [7] 103 % of control | [8] 98 % of control | [9] 90 % of control

O=P(CCCCl)(OCCCCl)OCCCCl
inactive: [13] 104 % of control | [14] 114 % of control | [15] 96 % of control

From PubChem BioAssay AID248 (DTP/NCI, 2004)
